# Assay results reported in ChEMBL document CHEMBL1201862, “PubChem BioAssay data set” (2004).
# Active and inactive are the calls of the source.
# How the values were obtained:
# [1] = tested on: HeLa; test: HeLa cell cytotoxicity, dose response, cytotoxicity control for MITF activator project, CellTiter-Glo luminescence, cherry-pick samples (AID 540259); assay type: functional, cell-based; settings: Homo sapiens
# [2] = tested on: A-375; test: MITF: Counter assay: A375 proliferation Measured in Cell-Based System Using Plate Reader - 2084-03_Inhibitor_Dose_DryPowder_Activity. [Related pubchem assays (depositor defined):AID488944]; assay type: functional; settings: Homo sapiens
# [3] = biological target: T1, Microphthalmia-associated transcription factor (Homo sapiens, UniProt O75030); test: TRPM1 promoter luciferase signal decrease, dose response, MITF inhibitor project, cell-based, SK-MEL-5, cherry-picked, set 3 (AID 493073); assay type: functional
# T1 sequence (O75030 whole entry): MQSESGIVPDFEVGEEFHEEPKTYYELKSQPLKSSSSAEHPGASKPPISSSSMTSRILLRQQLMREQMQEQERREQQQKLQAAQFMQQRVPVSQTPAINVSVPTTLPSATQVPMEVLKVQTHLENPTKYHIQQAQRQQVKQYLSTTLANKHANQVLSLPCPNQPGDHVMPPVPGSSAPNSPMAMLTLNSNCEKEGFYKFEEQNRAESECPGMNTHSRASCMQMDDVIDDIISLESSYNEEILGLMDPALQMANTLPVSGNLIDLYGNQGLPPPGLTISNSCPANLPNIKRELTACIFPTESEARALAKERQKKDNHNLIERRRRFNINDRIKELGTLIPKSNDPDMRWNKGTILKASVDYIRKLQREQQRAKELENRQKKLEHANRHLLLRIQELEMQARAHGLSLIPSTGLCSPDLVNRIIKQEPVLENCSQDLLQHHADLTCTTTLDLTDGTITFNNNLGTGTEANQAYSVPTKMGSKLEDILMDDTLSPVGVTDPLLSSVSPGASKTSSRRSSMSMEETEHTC
# [4] = biological target: Cytochrome P450 2D6 (Homo sapiens, UniProt P10635);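 also: CYP2D6 member of a cytochrome P450 panel assay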
# Sequence of Cytochrome P450 2D6 (P10635 whole entry): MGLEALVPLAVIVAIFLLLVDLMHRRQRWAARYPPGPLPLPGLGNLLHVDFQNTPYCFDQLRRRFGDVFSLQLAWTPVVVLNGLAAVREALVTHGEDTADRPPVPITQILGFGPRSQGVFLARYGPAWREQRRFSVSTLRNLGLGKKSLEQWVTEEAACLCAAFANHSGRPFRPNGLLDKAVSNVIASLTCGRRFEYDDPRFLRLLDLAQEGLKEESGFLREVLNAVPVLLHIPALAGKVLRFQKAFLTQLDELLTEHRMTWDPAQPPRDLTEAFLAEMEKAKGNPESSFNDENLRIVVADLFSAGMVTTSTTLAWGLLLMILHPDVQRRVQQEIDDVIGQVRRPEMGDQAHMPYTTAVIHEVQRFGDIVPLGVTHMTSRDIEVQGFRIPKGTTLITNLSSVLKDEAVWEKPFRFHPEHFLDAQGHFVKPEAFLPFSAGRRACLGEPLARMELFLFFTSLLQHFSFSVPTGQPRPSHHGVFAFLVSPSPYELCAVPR
# [5] = biological target: Cytochrome P450 2C9 (Homo sapiens, UniProt P11712)
# Sequence of Cytochrome P450 2C9 (P11712 whole entry): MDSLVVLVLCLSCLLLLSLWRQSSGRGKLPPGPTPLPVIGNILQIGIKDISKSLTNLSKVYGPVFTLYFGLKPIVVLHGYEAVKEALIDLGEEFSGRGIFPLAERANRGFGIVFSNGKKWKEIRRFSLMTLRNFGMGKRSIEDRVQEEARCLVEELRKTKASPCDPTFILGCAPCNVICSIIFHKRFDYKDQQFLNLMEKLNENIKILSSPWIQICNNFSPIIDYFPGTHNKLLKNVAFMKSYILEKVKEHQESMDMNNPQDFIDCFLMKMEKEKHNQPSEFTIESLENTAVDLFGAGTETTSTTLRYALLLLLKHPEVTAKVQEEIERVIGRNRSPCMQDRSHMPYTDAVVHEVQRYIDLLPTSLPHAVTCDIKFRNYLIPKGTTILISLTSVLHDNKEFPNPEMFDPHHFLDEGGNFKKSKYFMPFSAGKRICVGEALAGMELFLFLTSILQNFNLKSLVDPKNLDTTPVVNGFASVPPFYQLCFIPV
# [6] = biological target: T2, Cytochrome P450 1A2 (Homo sapiens, UniProt P05177);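 also: PubChem cytochrome P450 panel assay, CYP1A2 panel member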
# T2 sequence (P05177 whole entry): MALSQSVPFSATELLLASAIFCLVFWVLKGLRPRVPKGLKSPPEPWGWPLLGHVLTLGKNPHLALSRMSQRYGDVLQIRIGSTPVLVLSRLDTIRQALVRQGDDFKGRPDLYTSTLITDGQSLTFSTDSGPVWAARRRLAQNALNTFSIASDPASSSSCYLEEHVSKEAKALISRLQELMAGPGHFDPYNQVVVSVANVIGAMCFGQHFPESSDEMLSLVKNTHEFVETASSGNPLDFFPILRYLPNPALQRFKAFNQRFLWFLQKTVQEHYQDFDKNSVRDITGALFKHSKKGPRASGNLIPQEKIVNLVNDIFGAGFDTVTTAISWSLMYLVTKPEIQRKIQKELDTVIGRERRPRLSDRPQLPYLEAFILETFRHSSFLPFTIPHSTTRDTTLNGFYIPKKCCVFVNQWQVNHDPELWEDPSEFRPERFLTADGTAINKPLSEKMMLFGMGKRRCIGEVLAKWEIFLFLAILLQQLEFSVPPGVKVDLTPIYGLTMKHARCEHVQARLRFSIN
# [7] = THP-1 cell cytotoxicity, dose response, cytotoxicity control for Vif-APOBEC3G degradation inhibitor project, THP-1 cells (AID 1117359); assay type: functional; settings: Human immunodeficiency virus 1, THP-1
# [8] = biological target: T3, Protein Tat (Human immunodeficiency virus type 1 group M subtype B (isolate HXB2)(HIV-1), UniProt P04608); assay type: functional;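 also: tat binding to TAR RNA read out by fluorescence polarization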
# T3 sequence (P04608 whole entry): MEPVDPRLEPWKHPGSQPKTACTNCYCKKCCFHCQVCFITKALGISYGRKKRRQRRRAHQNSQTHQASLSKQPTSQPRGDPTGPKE
# [9] = biological target: T4, Carboxy-terminal domain RNA polymerase II polypeptide A small phosphatase 1 (Homo sapiens, UniProt Q9GZU7); test: inhibitors of CTDSP1, concentration-response testing, biochemical assay, absorbance-based, actives from ultra-high-throughput screening (AID 540297); assay type: functional
# T4 sequence (Q9GZU7 whole entry): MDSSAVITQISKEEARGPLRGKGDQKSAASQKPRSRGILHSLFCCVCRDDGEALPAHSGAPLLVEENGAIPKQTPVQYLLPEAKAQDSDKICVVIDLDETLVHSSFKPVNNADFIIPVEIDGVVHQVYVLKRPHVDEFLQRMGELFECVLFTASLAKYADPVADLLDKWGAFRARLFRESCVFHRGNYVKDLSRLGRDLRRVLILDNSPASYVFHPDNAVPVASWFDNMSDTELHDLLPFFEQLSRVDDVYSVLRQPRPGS
# [10] = biological target: T5, DNA repair and recombination protein RAD54-like (Homo sapiens, UniProt Q92698); test: inhibitors of human RAD54 branch migration, confirmation, biochemical, fluorescence, cherry-picked samples, dose series (AID 651657); assay type: functional
# T5 sequence (Q92698 whole entry): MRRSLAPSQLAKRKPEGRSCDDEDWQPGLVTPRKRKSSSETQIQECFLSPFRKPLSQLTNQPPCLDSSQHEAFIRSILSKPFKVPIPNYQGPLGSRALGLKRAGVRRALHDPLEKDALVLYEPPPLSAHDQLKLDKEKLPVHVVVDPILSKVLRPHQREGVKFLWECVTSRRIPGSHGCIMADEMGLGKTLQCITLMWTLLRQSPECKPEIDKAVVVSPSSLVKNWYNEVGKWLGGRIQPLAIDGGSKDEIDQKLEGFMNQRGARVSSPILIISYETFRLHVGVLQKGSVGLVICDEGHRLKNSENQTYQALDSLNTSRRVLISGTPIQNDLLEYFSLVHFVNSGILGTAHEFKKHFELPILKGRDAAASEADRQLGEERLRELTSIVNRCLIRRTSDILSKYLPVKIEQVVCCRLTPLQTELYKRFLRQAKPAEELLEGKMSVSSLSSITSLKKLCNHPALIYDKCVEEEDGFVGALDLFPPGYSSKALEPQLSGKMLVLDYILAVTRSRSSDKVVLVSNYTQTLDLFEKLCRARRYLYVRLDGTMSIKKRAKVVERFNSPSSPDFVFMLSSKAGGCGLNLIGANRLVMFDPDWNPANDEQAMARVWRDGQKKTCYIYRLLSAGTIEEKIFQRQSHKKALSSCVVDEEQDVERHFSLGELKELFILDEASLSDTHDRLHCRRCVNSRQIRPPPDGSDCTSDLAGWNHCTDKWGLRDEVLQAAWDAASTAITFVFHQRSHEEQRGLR
# [11] = miR-122 activators in hepatoma reporter cells, dose response, cell-based, Huh7 psiCHECK-miR122, Renilla luciferase, cherry-picked (AID 651956); assay type: functional;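 also: huh7 hepatoma cells stably carrying a psiCHECK-2 miR-122 sensor plasmid; renilla luciferase signal reporting endogenous miR-122 activity after 48 h compound exposure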
# [12] = biological target: T6, Ubiquitin-conjugating enzyme E2 N (Homo sapiens, UniProt P61088); assay type: functional
# T6 sequence (P61088 whole entry): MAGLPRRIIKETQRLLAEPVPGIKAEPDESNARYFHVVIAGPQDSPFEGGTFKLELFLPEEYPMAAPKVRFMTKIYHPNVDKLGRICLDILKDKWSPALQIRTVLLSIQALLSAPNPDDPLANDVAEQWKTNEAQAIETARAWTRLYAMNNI
# [13] = biological target: T7, Bcl-2-related protein A1 (Mus musculus, UniProt Q07440); assay type: functional;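 also: confirmatory dose–response counterscreen on Bfl-1, used to check hits from a UBC13 polyubiquitin inhibitor campaign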
# T7 sequence (Q07440 whole entry): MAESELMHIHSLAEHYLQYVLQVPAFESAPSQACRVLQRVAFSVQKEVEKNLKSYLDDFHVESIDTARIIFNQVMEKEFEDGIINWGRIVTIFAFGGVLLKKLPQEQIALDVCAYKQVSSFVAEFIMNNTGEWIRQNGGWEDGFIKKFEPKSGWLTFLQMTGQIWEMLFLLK
# [14] = biological target: T6, Ubiquitin-conjugating enzyme E2 N; assay type: functional; remark: listed apart in the source
# [15] = biological target: Tumor necrosis factor (Homo sapiens, UniProt P01375); test: TNFa-triggered NF-kB activation inhibitors, SAR follow-up, cell-based, revised (AID 2337); assay type: functional
# Sequence of Tumor necrosis factor (P01375 whole entry): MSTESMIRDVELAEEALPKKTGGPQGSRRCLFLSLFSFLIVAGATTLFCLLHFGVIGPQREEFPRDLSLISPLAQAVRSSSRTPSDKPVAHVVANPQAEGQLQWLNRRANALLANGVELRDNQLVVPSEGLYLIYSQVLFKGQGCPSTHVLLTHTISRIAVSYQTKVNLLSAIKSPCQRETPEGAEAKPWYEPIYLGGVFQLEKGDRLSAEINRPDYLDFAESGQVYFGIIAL
# [16] = tested on: HEK293; test: cells; settings: Homo sapiens
# [17] = biological target: T8, Protein RecA (Mycobacterium tuberculosis, UniProt P9WHJ3); test: Fluorescence Cell-Free Homogeneous Dose Retest to Identify Inhibitors of RecA-Intein Splicing Activity. [Related pubchem assays (depositor defined):AID2097, AID2223, AID489010, AID492950]; assay type: functional
# T8 sequence (P9WHJ3 whole entry): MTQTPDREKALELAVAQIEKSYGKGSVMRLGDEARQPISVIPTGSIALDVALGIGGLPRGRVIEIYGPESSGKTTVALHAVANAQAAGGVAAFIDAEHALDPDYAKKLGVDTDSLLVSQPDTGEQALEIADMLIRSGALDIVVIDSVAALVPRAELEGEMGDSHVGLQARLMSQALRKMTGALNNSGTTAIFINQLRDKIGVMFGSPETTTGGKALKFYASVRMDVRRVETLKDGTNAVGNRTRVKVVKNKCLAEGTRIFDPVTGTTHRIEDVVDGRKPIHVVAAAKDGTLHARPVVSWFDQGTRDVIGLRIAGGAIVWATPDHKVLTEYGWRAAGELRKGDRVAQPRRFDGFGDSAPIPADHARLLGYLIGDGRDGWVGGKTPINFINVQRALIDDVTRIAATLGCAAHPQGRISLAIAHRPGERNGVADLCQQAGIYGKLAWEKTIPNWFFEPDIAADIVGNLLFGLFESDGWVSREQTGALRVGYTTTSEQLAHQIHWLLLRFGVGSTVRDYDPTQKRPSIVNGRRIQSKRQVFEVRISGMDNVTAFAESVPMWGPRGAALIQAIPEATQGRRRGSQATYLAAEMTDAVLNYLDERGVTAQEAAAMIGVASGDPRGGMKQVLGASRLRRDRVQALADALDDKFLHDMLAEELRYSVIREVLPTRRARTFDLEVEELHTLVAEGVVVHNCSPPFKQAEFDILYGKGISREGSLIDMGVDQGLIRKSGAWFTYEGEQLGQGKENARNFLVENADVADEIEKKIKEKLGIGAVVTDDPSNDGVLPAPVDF
# [18] = tested on: HEK293; test: inhibitors of LMP1-driven NF-kB reporter, dose response, cell-based, HEK293, luciferase, cherry-pick (AID 588343); assay type: functional; settings: Homo sapiens
# [19] = biological target: FAD-linked sulfhydryl oxidase ALR (Homo sapiens, UniProt P55789); test: inhibitors of human ALR sulfhydryl oxidase, dose response, biochemical, H2O2 detection, luminescence, cherry-pick (AID 493248)
# Sequence of FAD-linked sulfhydryl oxidase ALR (P55789 whole entry): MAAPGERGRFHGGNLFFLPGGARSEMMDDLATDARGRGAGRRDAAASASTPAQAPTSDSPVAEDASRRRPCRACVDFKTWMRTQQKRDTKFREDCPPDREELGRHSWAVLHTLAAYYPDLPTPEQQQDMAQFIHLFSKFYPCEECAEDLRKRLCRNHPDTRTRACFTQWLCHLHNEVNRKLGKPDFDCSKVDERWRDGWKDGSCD
# [20] = biological target: T9, Replicative DNA helicase DnaB (Mycobacterium tuberculosis, UniProt P9WMR3); test: DnaB intein splicing inhibitors, dose response, biochemical, cell-free fluorescence (AID 449749); assay type: functional
# T9 sequence (P9WMR3 whole entry): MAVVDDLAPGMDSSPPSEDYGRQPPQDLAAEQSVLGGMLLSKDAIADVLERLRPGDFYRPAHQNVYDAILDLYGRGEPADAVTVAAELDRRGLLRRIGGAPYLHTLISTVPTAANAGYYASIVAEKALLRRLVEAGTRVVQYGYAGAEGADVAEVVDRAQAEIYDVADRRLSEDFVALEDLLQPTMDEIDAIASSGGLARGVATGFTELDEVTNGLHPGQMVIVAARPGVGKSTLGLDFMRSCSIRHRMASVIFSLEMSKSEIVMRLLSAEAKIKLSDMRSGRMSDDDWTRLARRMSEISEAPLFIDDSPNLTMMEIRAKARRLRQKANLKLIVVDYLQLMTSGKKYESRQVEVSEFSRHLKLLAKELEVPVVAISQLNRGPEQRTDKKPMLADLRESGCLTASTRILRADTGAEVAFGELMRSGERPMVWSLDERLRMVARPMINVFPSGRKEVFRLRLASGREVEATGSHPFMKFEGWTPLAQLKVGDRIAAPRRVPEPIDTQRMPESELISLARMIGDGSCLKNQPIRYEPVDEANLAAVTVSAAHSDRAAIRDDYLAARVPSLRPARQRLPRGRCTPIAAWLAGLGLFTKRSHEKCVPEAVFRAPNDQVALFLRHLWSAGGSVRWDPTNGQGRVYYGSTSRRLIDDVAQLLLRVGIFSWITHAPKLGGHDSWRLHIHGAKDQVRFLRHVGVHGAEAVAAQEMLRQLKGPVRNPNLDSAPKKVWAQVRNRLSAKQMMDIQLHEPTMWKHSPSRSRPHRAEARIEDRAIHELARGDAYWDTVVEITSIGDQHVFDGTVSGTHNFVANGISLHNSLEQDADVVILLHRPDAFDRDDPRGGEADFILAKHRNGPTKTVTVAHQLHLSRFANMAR
structure (smiles),measurement,setting,value
O=C(Nc1ccc(-c2nc3cccnc3s2)cc1)c1ccc(Cl)nc1,AC50,[1],201 µM (active)
Cc1cc(C)cc(NS(=O)(=O)c2ccc3c(c2)c(=O)n(C)c(=O)n3C)c1,AC50,[2],17.3 µM (active)
same,AC50,[3],4.67 µM (active)
CCOC(=S)SCC(=O)O,AC50,[4],inconclusive
CC(=O)c1c(C(C)=O)c(C)n(NC(=O)c2ccccc2Cl)c1C,AC50,[5],inconclusive
same,AC50,[4],inconclusive
COc1ccc(OC)c2nc(O)c(CCNS(=O)(=O)c3ccc(C)cc3)cc12,AC50,[6],12.6 µM (inconclusive)
same,AC50,[4],inconclusive
CC(=O)N(\C=C/C=C/C=C1\Sc2ccccc2C1=O)c1ccccc1,AC50,[2],50.7 µM (active)
same,AC50,[3],8 µM (active)
same,CC50,[7],> 40 µM (active)
same,IC50,[8],> 100 µM (active)
COc1cc(NC(=O)c2ccc3c(c2)C(=O)N(CCC(C)C)C3=O)c(C(=O)O)cc1OC,IC50,[9],7.04 µM (active)
C=CCc1ccccc1OCC(O)CN1CCN(CCN2C(=O)c3cccc4cccc(c34)C2=O)CC1 (stereo not given),AC50,[10],9.3 µM (active)
same,AC50,[11],8.26 µM (active)
same,IC50,[12],17.2 µM (active)
same,IC50,[13],> 20 µM (inactive)
same,IC50,[14],17.7 µM (active)
CCCC(=O)Nc1nc(-c2ccccc2)ns1,AC50,[1],64.7 µM (active)
CN(C)c1ccc(NC(=O)c2ccc(CN3CCCCC3)cc2)cc1,IC50,[15],> 20 µM (inactive)
same,IC50,[16],> 20 µM (inactive)
CC(C)(C)c1ccc(C(=O)O/N=C(\N)c2cccc([N+](=O)[O-])c2)cc1,IC50,[16],> 20 µM (inactive)
O=C(CSc1nc2sc3c(c2c(=O)n1-c1ccccc1)CCCC3)N/N=C/c1ccccc1C(=O)O,IC50,[9],9.27 µM (active)
Cc1cc(Sc2nnc(/N=C/N(C)C)s2)c2ccccc2n1,EC50,[17],10.3 µM (active)
same,AC50,[18],2.9 µM (active)
same,AC50,[19],0.801 µM (active)
same,AC50,[20],39.8 µM (active)
same,IC50,[12],8.88 µM (active)
same,IC50,[13],> 20 µM (inactive)
same,IC50,[14],11 µM (active)
